Patent US20100286147A1 (priority 2008, published 2010)

Assays:
Format in all cases: in vivo
[1] = tested on: Phytophthora infestans; details: tomato seedlings, sprayed 17 h after inoculation; visual rating, 100 = 100% disease control, 0 = no control relative to controls; test concentration not given
[2] = tested on: Plasmopara viticola; test: Test A: grape downy mildew, grape seedlings sprayed after inoculation; details: sprayed 24 h after inoculation, visual rating, 100 = 100% disease control, 0 = no control relative to controls, test concentration not given
Excerpt: General protocol for preparing test suspensions for Test A-C: The test compounds were first dissolved in acetone in an amount equal to 3% of the final volume and then suspended at the desired concentration (in ppm) in acetone and purified water (50/50 mix by volume) containing 250 ppm of the surfactant Trem® 014 (polyhydric alcohol esters). The resulting test suspensions were then used in Tests A-C. Spraying a 40 ppm test suspension to the point of run-off on the test plants was equivalent to a rate of 100 g/ha.
Grape seedlings were inoculated with a spore suspension of Plasmopara viticola (the causal agent of grape downy mildew) and incubated in a saturated atmosphere at 20° C. for 24 h. After a short drying period, the test suspension was sprayed to the point of run-off on the grape seedlings, which were then moved to a growth chamber at 20° C. for 5 days, after which time the grape seedling were placed back into a saturated atmosphere at 20° C. for 24 h. Upon removal, visual disease ratings were made.
Results for Tests A-C are given in Table A. In the table, a rating of 100 indicates 100% disease control and a rating of 0 indicates no disease control (relative to the controls).

[3] = tested on: Phytophthora infestans; details: tomato seedlings, sprayed the day before inoculation; visual rating, 100 = 100% disease control, 0 = no control relative to controls; test concentration not given

Row | SMILES | Percent Disease Control Test C [1] | Percent Disease Control Test A [2] | Percent Disease Control Test B [3]
1 | Cc1cc(C(F)(F)F)nn1CC(=O)N1CCC(c2nc(C3=NOC(c4cccc(-n5cncn5)c4)C3)cs2)CC1 (stereo not drawn) [Compound 1, 1-[4-[4-[4,5-dihydro-5-[3-(1H-1,2,4-triazol-1-yl)phenyl]-3-isoxazolyl]-2-thiazolyl]-1-piperidinyl]-2-[5-methyl-3-(trifluoromethyl)-1H-pyrazol-1-yl]ethanone] | 99% | 91% | 100%
2 | Cc1cc(C(F)(F)F)nn1CC(=O)N1CCC(c2nc(C3=NOC(c4ccc(-c5ccccc5)cc4)C3)cs2)CC1 (stereo not drawn) [Compound 2] | 32% | 76% | 90%
3 | Cc1cc(C(F)(F)F)nn1CC(=O)N1CCC(c2nc(C3=NOC(c4ccccc4Oc4ccccc4)C3)cs2)CC1 (stereo not drawn) [Compound 3] | 93% | 97% | 100%
4 | Cc1cc(C(F)(F)F)nn1CC(=O)N1CCC(c2nc(C3=NOC(c4ccccc4N4CCCCC4)C3)cs2)CC1 (stereo not drawn) [Compound 4] | 83% | 58% | 99%
5 | Cc1cc(C(F)(F)F)nn1CC(=O)N1CCC(c2nc(C3=NOC(c4ccccc4-n4cncn4)C3)cs2)CC1 (stereo not drawn) [Compound 5] | 99% | 98% | 100%
6 | Cc1cc(C(F)(F)F)nn1CC(=O)N1CCC(c2nc(C3=NOC(c4ccccc4N4CCOCC4)C3)cs2)CC1 (stereo not drawn) [Compound 6] | 99% | 87% | 100%
7 | Cc1cc(C(F)(F)F)nn1CC(=O)N1CCC(c2nc(C3=NOC(c4ccccc4Cc4ccccc4)C3)cs2)CC1 (stereo not drawn) [Compound 7] | 86% | 73% | 99%
8 | Cc1cccc(C2CC(c3csc(C4CCN(C(=O)Cn5nc(C(F)(F)F)cc5C)CC4)n3)=NO2)c1-n1c(O)nn(C)c1=O (stereo not drawn) [Compound 8] | 53% | 0% | 100%
9 | Cc1cc(C(F)(F)F)nn1CC(=O)N1CCC(c2nc(C3=NOC(c4ccccc4C(=O)c4ccccc4)C3)cs2)CC1 (stereo not drawn) [Compound 9] | 17% | 0% | 100%
10 | Cc1cc(C(F)(F)F)nn1CC(=O)N1CCC(c2nc(C3=NOC(c4ccccc4N4CCN(C)CC4)C3)cs2)CC1 (stereo not drawn) [Compound 10] | 93% | 10% | 100%
11 | Cc1cc(C(F)(F)F)nn1CC(=O)N1CCC(c2nc(C3=NOC(c4c(F)cccc4-n4cncn4)C3)cs2)CC1 (stereo not drawn) [Compound 11] | 99% | 99% | 100%
12 | COc1nn(C)c(=O)n1-c1c(C)cccc1C1CC(c2csc(C3CCN(C(=O)Cn4nc(C(F)(F)F)cc4C)CC3)n2)=NO1 (stereo not drawn) [Compound 12] | 99% | 31% | 100%
13 | Cc1cc(C(F)(F)F)nn1CC(=O)N1CCC(c2nc(C3=NOC(n4ccc(-c5ccccc5)n4)C3)cs2)CC1 (stereo not drawn) [Compound 13] | 93% | 56% | 100%
14 | Cc1cc(C(F)(F)F)nn1CC(=O)N1CCC(c2nc(C3=NOC(N4C(=O)NC(C)(c5ccccc5)C4=O)C3)cs2)CC1 (stereo not drawn) [Compound 15] | 97% | 92% | 100%
15 | Cc1cc(C(F)(F)F)nn1CC(=O)N1CCC(c2nc(C3=NOC(c4ccccc4-c4ccccc4)C3)cs2)CC1 (stereo not drawn) [Compound 16] | 99% | 99% | 100%
16 | Cc1ccc(C)c(NC(=O)N2CCC(c3nc(C4=NOC(c5ccccc5-c5ccccc5)C4)cs3)CC2)c1 (stereo not drawn) [Compound 17, 4-[4-(5-[1,1′-biphenyl]-2-yl-4,5-dihydro-3-isoxazolyl)-2-thiazolyl]-N-(2,5-dimethylphenyl)-1-piperidinecarboxamide] | 99% | 98% | 100%
17 | Cc1ccc(C)c(NC(=O)N2CCC(c3nc(C4=NOC(c5ccccc5Oc5ccccc5)C4)cs3)CC2)c1 (stereo not drawn) [Compound 18] | 58% | 67% | 93%
18 | Cc1ccc(C)c(NC(=O)N2CCC(c3nc(C4=NOC(c5ccccc5-n5cncn5)C4)cs3)CC2)c1 (stereo not drawn) [Compound 19] | 99% | 99% | 100%
